Each block holds one compound with its values, some of them ahead of it.
Legend:
Assay in all cases: KINOMEscan competition binding
Conditions in all cases: compound 10.0 µM
[1] = test system: KIT (human), P10721 [V559D/V654A]
MKNK2 (human) = MKNK2 (human) (UniProt Q9HBH9)
BMP2K (human) = BMP2K (human) (UniProt Q9NSY1)
RPS6KA6 KD2 (human) = RPS6KA6 KD2 (human) (UniProt Q9UK32)
MAP4K2 (human) = MAP4K2 (human) (UniProt Q12851)
CLK1 (human) = CLK1 (human) (UniProt P49759)
CDK7 (human) = CDK7 (human) (UniProt P50613)
CAMKK2 (human) = CAMKK2 (human) (UniProt Q96RR4)
[2] = test system: FLT3 (human), P36888 [D835H]
RIOK3 (human) = RIOK3 (human) (UniProt O14730)
PIP4K2B (human) = PIP4K2B (human) (UniProt P78356)
STK17A (human) = STK17A (human) (UniProt Q9UEE5)
STK24 (human) = STK24 (human) (UniProt Q9Y6E0)
[3] = test system: KIT (human), P10721 [V559D/T670I]
FLT3 (human) = FLT3 (human) (UniProt P36888)
TGFBR2 (human) = TGFBR2 (human) (UniProt P37173)
MAP3K5 (human) = MAP3K5 (human) (UniProt Q99683)
HIPK1 (human) = HIPK1 (human) (UniProt Q86Z02)
DCLK3 (human) = DCLK3 (human) (UniProt Q9C098)
MAP4K4 (human) = MAP4K4 (human) (UniProt O95819)
GSK3A (human) = GSK3A (human) (UniProt P49840)
TLK1 (human) = TLK1 (human) (UniProt Q9UKI8)
[4] = target: JAK1 JH2 pseudokinase (human) (UniProt P23458)
SRPK2 (human) = SRPK2 (human) (UniProt P78362)
RIOK2 (human) = RIOK2 (human) (UniProt Q9BVS4)
ACVR2A (human) = ACVR2A (human) (UniProt P27037)
RPS6KA1 KD2 (human) = RPS6KA1 KD2 (human) (UniProt Q15418)
BMPR1B (human) = BMPR1B (human) (UniProt O00238)
DAPK2 (human) = DAPK2 (human) (UniProt Q9UIK4)
TNK1 (human) = TNK1 (human) (UniProt Q13470)
CSNK1D (human) = CSNK1D (human) (UniProt P48730)
[5] = test system: FLT3 (human), P36888 [ITD]
MAP2K4 (human) = MAP2K4 (human) (UniProt P45985)
KIT (human) = KIT (human) (UniProt P10721)
DYRK1B (human) = DYRK1B (human) (UniProt Q9Y463)
[6] = test system: KIT (human), P10721 [D816V]
CLK4 (human) = CLK4 (human) (UniProt Q9HAZ1)
BRSK2 (human) = BRSK2 (human) (UniProt Q8IWQ3)
CSNK1E (human) = CSNK1E (human) (UniProt P49674)
TAOK1 (human) = TAOK1 (human) (UniProt Q7L7X3)
PIK3CG (human) = PIK3CG (human) (UniProt P48736)
RIOK1 (human) = RIOK1 (human) (UniProt Q9BRS2)

Chain of KIT (human), P10721 [D816V] (P10721 whole entry D816V, looked up): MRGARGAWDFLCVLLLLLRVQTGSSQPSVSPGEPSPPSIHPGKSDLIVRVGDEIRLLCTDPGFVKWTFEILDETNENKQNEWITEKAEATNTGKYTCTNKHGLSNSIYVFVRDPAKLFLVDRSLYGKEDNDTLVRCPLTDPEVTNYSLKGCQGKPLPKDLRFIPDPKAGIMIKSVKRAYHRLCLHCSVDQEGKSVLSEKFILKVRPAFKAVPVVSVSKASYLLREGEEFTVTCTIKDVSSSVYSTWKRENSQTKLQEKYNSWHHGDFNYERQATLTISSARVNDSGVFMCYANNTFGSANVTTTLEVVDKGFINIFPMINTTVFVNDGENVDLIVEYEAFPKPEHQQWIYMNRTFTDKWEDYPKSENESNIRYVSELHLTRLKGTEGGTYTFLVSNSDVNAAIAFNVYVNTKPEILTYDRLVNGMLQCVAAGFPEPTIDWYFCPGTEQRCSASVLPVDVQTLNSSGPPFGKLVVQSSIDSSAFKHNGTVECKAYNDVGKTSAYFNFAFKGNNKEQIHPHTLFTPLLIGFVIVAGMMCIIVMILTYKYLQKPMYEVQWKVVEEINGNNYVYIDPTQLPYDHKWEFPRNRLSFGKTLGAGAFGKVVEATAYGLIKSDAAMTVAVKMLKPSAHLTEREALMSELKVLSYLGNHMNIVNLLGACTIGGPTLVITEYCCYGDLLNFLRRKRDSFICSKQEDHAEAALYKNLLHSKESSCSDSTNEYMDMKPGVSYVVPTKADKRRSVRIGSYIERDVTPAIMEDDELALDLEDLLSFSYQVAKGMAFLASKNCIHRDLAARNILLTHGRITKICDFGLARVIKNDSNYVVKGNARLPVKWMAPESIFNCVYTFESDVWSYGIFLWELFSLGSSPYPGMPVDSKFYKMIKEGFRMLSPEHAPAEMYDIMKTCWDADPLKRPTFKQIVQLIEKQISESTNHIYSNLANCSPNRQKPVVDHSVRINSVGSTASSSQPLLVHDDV
Chain of CAMKK2 (human) (Q96RR4 whole entry, looked up): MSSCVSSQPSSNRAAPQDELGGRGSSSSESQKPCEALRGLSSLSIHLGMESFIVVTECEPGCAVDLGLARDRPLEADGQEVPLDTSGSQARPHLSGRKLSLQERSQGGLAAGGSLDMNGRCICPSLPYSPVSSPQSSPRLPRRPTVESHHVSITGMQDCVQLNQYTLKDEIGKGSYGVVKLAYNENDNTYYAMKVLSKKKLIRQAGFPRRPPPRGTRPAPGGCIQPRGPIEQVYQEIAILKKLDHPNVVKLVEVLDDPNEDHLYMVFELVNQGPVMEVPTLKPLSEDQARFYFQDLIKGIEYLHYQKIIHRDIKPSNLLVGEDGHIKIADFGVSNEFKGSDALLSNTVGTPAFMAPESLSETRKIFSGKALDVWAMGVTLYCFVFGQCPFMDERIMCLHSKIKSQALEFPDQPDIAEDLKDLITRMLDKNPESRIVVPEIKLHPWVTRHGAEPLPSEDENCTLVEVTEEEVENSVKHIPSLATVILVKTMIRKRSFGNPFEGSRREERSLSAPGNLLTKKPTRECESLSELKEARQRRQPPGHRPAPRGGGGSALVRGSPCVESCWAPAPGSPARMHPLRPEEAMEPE
Chain of PIK3CG (human) (P48736 whole entry, looked up): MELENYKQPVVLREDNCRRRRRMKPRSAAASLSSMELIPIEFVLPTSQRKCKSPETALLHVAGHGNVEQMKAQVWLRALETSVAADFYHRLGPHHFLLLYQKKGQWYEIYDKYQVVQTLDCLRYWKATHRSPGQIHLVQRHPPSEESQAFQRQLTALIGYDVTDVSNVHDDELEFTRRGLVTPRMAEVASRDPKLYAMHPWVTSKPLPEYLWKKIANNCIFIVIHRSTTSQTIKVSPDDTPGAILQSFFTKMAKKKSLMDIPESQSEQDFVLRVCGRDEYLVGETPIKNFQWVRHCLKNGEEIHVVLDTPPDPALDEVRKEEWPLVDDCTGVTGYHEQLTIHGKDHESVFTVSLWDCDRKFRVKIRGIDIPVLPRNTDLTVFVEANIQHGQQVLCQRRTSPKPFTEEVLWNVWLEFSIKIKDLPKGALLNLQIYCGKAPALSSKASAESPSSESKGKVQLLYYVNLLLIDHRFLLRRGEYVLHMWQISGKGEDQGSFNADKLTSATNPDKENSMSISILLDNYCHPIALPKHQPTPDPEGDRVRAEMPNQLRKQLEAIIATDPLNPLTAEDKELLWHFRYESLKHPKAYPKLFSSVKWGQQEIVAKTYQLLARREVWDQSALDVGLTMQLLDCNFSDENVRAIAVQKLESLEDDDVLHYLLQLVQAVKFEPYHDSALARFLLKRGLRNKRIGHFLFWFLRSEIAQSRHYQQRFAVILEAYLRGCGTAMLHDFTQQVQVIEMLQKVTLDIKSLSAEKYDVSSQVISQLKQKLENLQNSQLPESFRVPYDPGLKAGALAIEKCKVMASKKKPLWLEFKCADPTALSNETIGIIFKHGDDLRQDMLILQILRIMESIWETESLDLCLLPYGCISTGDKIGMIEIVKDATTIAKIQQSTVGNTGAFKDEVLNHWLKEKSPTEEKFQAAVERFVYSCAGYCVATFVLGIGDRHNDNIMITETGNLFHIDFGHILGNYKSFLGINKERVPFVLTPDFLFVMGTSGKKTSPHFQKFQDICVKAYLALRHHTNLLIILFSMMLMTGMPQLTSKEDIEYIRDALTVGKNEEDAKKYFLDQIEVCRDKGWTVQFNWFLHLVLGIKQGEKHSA
Chain of MKNK2 (human) (Q9HBH9 whole entry, looked up): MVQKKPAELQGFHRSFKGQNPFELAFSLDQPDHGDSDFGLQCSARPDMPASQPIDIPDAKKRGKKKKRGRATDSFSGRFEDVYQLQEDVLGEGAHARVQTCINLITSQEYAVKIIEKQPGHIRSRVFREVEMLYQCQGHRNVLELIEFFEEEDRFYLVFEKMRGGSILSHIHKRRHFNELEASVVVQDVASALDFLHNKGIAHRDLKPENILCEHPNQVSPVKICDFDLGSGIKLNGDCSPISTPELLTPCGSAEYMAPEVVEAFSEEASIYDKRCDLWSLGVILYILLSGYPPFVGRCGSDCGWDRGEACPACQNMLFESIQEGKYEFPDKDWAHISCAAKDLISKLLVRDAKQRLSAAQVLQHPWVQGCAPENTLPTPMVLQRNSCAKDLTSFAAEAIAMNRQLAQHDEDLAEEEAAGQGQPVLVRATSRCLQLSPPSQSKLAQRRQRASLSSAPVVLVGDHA
Chain of CLK4 (human) (Q9HAZ1 whole entry, looked up): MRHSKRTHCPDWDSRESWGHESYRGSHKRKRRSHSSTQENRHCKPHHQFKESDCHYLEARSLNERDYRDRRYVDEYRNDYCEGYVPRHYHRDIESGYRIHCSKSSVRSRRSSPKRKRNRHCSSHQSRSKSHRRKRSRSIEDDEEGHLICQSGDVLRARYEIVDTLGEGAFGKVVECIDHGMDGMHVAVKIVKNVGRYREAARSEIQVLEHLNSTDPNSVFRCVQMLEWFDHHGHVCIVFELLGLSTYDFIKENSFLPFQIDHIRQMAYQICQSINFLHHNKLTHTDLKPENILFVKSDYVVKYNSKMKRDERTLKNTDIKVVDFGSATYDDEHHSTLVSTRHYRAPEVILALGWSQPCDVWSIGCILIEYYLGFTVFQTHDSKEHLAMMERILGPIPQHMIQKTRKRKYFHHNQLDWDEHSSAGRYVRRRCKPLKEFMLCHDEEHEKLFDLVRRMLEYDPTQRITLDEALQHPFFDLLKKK
Chain of BMP2K (human) (Q9NSY1 whole entry, looked up): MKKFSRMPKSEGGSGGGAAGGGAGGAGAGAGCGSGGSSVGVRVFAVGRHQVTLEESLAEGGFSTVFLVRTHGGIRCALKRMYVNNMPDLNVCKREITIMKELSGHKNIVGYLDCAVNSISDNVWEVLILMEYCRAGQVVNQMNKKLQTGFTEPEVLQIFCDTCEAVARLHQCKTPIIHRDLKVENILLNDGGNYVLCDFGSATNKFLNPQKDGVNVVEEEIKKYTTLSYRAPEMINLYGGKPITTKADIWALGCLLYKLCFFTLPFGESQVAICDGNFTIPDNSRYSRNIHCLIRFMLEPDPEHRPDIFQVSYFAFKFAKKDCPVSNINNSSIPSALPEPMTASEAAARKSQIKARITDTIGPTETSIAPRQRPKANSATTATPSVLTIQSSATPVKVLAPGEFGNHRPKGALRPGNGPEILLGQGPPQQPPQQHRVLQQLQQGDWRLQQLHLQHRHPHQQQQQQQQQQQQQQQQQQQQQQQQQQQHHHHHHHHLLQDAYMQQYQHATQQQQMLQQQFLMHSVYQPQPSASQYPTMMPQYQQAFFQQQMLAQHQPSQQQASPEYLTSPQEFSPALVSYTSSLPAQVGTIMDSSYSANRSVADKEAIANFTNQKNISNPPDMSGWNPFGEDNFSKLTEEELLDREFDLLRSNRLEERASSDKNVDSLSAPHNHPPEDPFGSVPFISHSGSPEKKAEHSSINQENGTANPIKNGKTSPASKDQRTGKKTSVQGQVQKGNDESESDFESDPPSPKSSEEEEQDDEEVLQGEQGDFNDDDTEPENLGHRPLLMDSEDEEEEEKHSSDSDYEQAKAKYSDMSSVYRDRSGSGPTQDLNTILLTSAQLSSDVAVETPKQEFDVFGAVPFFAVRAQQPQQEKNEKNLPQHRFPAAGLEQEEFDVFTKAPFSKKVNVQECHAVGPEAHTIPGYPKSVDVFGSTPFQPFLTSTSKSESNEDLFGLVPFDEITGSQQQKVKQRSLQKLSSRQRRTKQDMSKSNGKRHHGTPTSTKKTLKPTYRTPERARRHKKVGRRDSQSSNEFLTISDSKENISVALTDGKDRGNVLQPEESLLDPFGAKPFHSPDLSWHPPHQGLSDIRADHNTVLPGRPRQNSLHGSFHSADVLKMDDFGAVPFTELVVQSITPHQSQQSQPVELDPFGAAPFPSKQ
Chain of KIT (human), P10721 [V559D/V654A] (P10721 whole entry V559D/V654A, looked up): as the sequence (P10721 whole entry D816V, looked up) above, with V559D, V654A, V816D counted along it
Chain of KIT (human), P10721 [V559D/T670I] (P10721 whole entry V559D/T670I, looked up): as the sequence (P10721 whole entry D816V, looked up) above, with V559D, T670I, V816D counted along it
Chain of KIT (human) (P10721 whole entry, looked up): as the sequence (P10721 whole entry D816V, looked up) above, with V816D counted along it

- kinase still bound, per cent of control [1]: 91%
- kinase still bound, per cent of control (MKNK2 (human)): 24%
- kinase still bound, per cent of control (BMP2K (human)): 98%
- kinase still bound, per cent of control (RPS6KA6 KD2 (human)): 6%
- kinase still bound, per cent of control (MAP4K2 (human)): 96%
- kinase still bound, per cent of control (CLK1 (human)): 56%
- kinase still bound, per cent of control (CDK7 (human)): 67%
- kinase still bound, per cent of control (CAMKK2 (human)): 34%
- kinase still bound, per cent of control [2]: 80%
- kinase still bound, per cent of control (RIOK3 (human)): 52%
- kinase still bound, per cent of control (PIP4K2B (human)): 89%
- kinase still bound, per cent of control (STK17A (human)): 96%
- kinase still bound, per cent of control (STK24 (human)): 72%
- kinase still bound, per cent of control [3]: 82%
- kinase still bound, per cent of control (FLT3 (human)): 99%
- kinase still bound, per cent of control (TGFBR2 (human)): 94%
- kinase still bound, per cent of control (MAP3K5 (human)): 74%
- kinase still bound, per cent of control (HIPK1 (human)): 67%
- kinase still bound, per cent of control (DCLK3 (human)): 18%
- kinase still bound, per cent of control (MAP4K4 (human)): 99%
- kinase still bound, per cent of control (GSK3A (human)): 100%
- kinase still bound, per cent of control (TLK1 (human)): 74%
- kinase still bound, per cent of control [4]: 78%
- kinase still bound, per cent of control (SRPK2 (human)): 100%
- kinase still bound, per cent of control (RIOK2 (human)): 100%
- kinase still bound, per cent of control (ACVR2A (human)): 100%
- kinase still bound, per cent of control (RPS6KA1 KD2 (human)): 24%
- kinase still bound, per cent of control (BMPR1B (human)): 91%
- kinase still bound, per cent of control (DAPK2 (human)): 50%
- kinase still bound, per cent of control (TNK1 (human)): 7%
- kinase still bound, per cent of control (CSNK1D (human)): 81%
- kinase still bound, per cent of control [5]: 99%
- kinase still bound, per cent of control (MAP2K4 (human)): 71%
- kinase still bound, per cent of control (KIT (human)): 66%
- kinase still bound, per cent of control (DYRK1B (human)): 63%
- kinase still bound, per cent of control [6]: 100%
- kinase still bound, per cent of control (CLK4 (human)): 66%
- kinase still bound, per cent of control (BRSK2 (human)): 100%
- kinase still bound, per cent of control (CSNK1E (human)): 91%
- kinase still bound, per cent of control (TAOK1 (human)): 18%
- kinase still bound, per cent of control (PIK3CG (human)): 73%
- kinase still bound, per cent of control (RIOK1 (human)): 71%
Structure (SMILES): COc1cc(N2CCN(C)CC2)ccc1Nc1ncc2c(n1)N(C)c1sccc1C(=O)N2C

- kinase still bound, per cent of control [1]: 88%
- kinase still bound, per cent of control (MKNK2 (human)): 69%
- kinase still bound, per cent of control (BMP2K (human)): 72%
- kinase still bound, per cent of control (RPS6KA6 KD2 (human)): 29%
- kinase still bound, per cent of control (MAP4K2 (human)): 6.3%
- kinase still bound, per cent of control (CLK1 (human)): 100%
- kinase still bound, per cent of control (CDK7 (human)): 100%
- kinase still bound, per cent of control (CAMKK2 (human)): 100%
- kinase still bound, per cent of control [2]: 20%
- kinase still bound, per cent of control (RIOK3 (human)): 68%
- kinase still bound, per cent of control (PIP4K2B (human)): 74%
- kinase still bound, per cent of control (STK17A (human)): 62%
- kinase still bound, per cent of control (STK24 (human)): 95%
- kinase still bound, per cent of control [3]: 59%
- kinase still bound, per cent of control (FLT3 (human)): 69%
- kinase still bound, per cent of control (TGFBR2 (human)): 32%
- kinase still bound, per cent of control (MAP3K5 (human)): 100%
- kinase still bound, per cent of control (HIPK1 (human)): 45%
- kinase still bound, per cent of control (DCLK3 (human)): 98%
- kinase still bound, per cent of control (MAP4K4 (human)): 86%
- kinase still bound, per cent of control (GSK3A (human)): 100%
- kinase still bound, per cent of control (TLK1 (human)): 70%
- kinase still bound, per cent of control [4]: 32%
- kinase still bound, per cent of control (SRPK2 (human)): 93%
- kinase still bound, per cent of control (RIOK2 (human)): 43%
- kinase still bound, per cent of control (ACVR2A (human)): 34%
- kinase still bound, per cent of control (RPS6KA1 KD2 (human)): 43%
- kinase still bound, per cent of control (BMPR1B (human)): 19%
- kinase still bound, per cent of control (DAPK2 (human)): 95%
- kinase still bound, per cent of control (TNK1 (human)): 100%
- kinase still bound, per cent of control (CSNK1D (human)): 42%
- kinase still bound, per cent of control [5]: 63%
- kinase still bound, per cent of control (MAP2K4 (human)): 93%
- kinase still bound, per cent of control (KIT (human)): 48%
- kinase still bound, per cent of control (DYRK1B (human)): 79%
- kinase still bound, per cent of control [6]: 46%
- kinase still bound, per cent of control (CLK4 (human)): 94%
- kinase still bound, per cent of control (BRSK2 (human)): 100%
- kinase still bound, per cent of control (CSNK1E (human)): 59%
- kinase still bound, per cent of control (TAOK1 (human)): 2.9%
- kinase still bound, per cent of control (PIK3CG (human)): 100%
- kinase still bound, per cent of control (RIOK1 (human)): 67%
Structure (SMILES): COc1cc(N2CCN(C)CC2)ccc1Nc1ncc2c(n1)Nc1ccccc1NC2=O

From the kinase profiling compilation of Christmann-Franck et al. (2016)
